Measured values taken from patent EP0532716B1, “NEW […] WITH IMUNOMODULATING ACTIVITY AND PREPARATION THEREOF” (INSTITUTO […] T[…] NAVARRA, S.A., priority 1990, dated 1992).
Ends that are not written are not given here.

Columns and labels:
Type in all cases: cell-based
K562 target cells = test: 51Cr release assay: cytotoxic activity of peptide-activated lymphomononuclear cells against K562 target cells; conditions: lymphomononuclear cells from three healthy donors, cultured 4 days with 20 micrograms of peptide; Mean ± Standard error
From the text: (§1) Generation of cells with cytotoxic activity towards NK sensitive and NK resistant target cells.
(§2) Peripheral blood mononuclear cells from healthy donors were obtained by leukapheresis, processing 5 to 10 liters of whole blood, using a Fenwall CS-3000 continuous-flow cell separator (Fenwall Laboratories, Deerfield, Illinois, USA). Vascular access was obtained with a double lumen central venous catheter.
(§3) Separated lymphomononuclear cells are washed, counted and resuspended at a concentration of 2x10^6 per ml in RPMI-1640 medium containing 10 units of penicillin per ml, 200 µg of gentamycin per ml, 2mM of glutamine per ml and 2,5% of autologous serum in a PL-732 culture bag (Fenwall Laboratories, Deerfield, Illinois, USA).
(§4) The incubation medium contained 20 micrograms of the peptide being studied. • Peptide 1 (Peptide of Example 1). • Peptide 2 (Peptide of Example 2). • Peptide 3 (Peptide of Example 3). • Peptide 4 (Peptide of Example 4). […]. In this pentadecapeptide Proline is absent. This control peptide has in common with the peptides object the invention only aa11=Asp).
(§5) The cells are cultured for 4 days in a moist-air incubator at 37^ºC, 5% CO2 and 21% O2, One ml sample is drawn daily for microbiological studies.
(§6) Changes in the cytotoxic ability of lymphomononuclear cells before and after peptide activation are measured with the ^51Cr release assay, using K562 and Daudi target cells (Table I). Phenotypic changes of lymphomononuclear cells before and after peptide activation are also assessed with fluorescein labeled […] antibodies and automated flow cytometry (Table II). It is well known that lymphomononuclear cells are very heterogeneous, but the presence of surface markers (CD) allows the description of their phenotypes (Weissman IL, Fathman CG, J Exp Med (1973) 137:504; Small M, Herzenberg CA, Weissman IL, Cell Immunol (1975) 15:109).

Daudi target cells = test: 51Cr release assay: cytotoxic activity of peptide-activated lymphomononuclear cells against Daudi target cells; conditions: lymphomononuclear cells from three healthy donors, cultured 4 days with 20 micrograms of peptide; Mean ± Standard error
From the text: as §1, §2, §3, §4, §5, §6

lymphomononuclear cells = test: Phenotypes of lymphomononuclear cells after peptide activation (fluorescein labeled antibodies, automated flow cytometry); conditions: 20 micrograms of peptide, 4 days, three healthy donors, Mean ± Standard error
Method: as §2, §3
The incubation medium contained 20 micrograms of the peptide being studied. • Peptide 1 (Peptide of Example 1). • Peptide 2 (Peptide of Example 2). • Peptide 3 (Peptide of Example 3). • Peptide 4 (Peptide of Example 4). Control Peptide (Ala-Asp-Ala-Gln-Gln-Asn-Lys-Phe-Asn-Lys-Asp-Gln-Gln-Ser-Val. In this pentadecapeptide Proline is absent. This control peptide has in common with the peptides object the invention only aa11=Asp).
as §5, §6

CC[C@H](C)[C@H](NC(=O)[C@H](CCC(=O)O)NC(=O)[C@H](CCCCN)NC(=O)[C@H](CO)NC(=O)[C@@H](NC(=O)[C@H](CO)NC(=O)[C@@H]1CCCN1C(=O)[C@H](CC(=O)O)NC(=O)[C@H](CC(=O)O)NC(=O)[C@H](CCCCN)NC(=O)[C@H](CC(C)C)NC(=O)[C@H](CO)NC(=O)[C@H](CCC(N)=O)NC(=O)[C@@H](NC(=O)[C@H](Cc1ccccc1)NC(=O)CNC(=O)[C@@H](N)CC(N)=O)[C@@H](C)CC)C(C)C)C(=O)N[C@@H](CC(C)C)C(=O)N[C@@H](C)C(=O)N[C@@H](CCC(=O)O)C(=O)N[C@@H](C)C(=O)N[C@@H](CCCCN)C(=O)N[C@H](C(=O)O)C(C)C [Peptide 4]
CYTOTOXIC ACTIVITY (%) K562 (K562 target cells): 58 ± 7% | CYTOTOXIC ACTIVITY (%) DAUDI (Daudi target cells): 56 ± 6%

CC[C@H](C)[C@H](NC(=O)[C@H](CCC(=O)O)NC(=O)[C@H](CCCCN)NC(=O)[C@H](CO)NC(=O)[C@@H](NC(=O)[C@H](CO)NC(=O)[C@@H]1CCCN1C(=O)[C@H](CC(=O)O)NC(=O)[C@H](CC(=O)O)NC(=O)[C@H](CCCCN)NC(=O)[C@H](CC(C)C)NC(=O)[C@@H](N)CO)C(C)C)C(=O)N[C@@H](CC(C)C)C(=O)N[C@@H](C)C(=O)N[C@H](C(=O)O)C(C)C [Peptide 2]
CYTOTOXIC ACTIVITY (%) K562 (K562 target cells): 62 ± 7% | CYTOTOXIC ACTIVITY (%) DAUDI (Daudi target cells): 62 ± 8% | CELLS EXPRESSING SURFACE MARKERS (%) CD3 (lymphomononuclear cells): 58 ± 2% | CELLS EXPRESSING SURFACE MARKERS (%) CD8 (lymphomononuclear cells): 18 ± 2% | CELLS EXPRESSING SURFACE MARKERS (%) CD11b (lymphomononuclear cells): 24 ± 3% | CELLS EXPRESSING SURFACE MARKERS (%) CD14 (lymphomononuclear cells): 18 ± 3% | CELLS EXPRESSING SURFACE MARKERS (%) CD16 (lymphomononuclear cells): 22 ± 6% | CELLS EXPRESSING SURFACE MARKERS (%) CD56 (lymphomononuclear cells): 17 ± 5%

CC(C)[C@H](NC(=O)[C@H](CO)NC(=O)[C@H](CCC(N)=O)NC(=O)[C@H](CCC(N)=O)NC(=O)[C@H](CC(=O)O)NC(=O)[C@H](CCCCN)NC(=O)[C@H](CC(N)=O)NC(=O)[C@H](Cc1ccccc1)NC(=O)[C@H](CCCCN)NC(=O)[C@H](CC(N)=O)NC(=O)[C@H](CCC(N)=O)NC(=O)[C@H](CCC(N)=O)NC(=O)[C@H](C)NC(=O)[C@H](CC(=O)O)NC(=O)[C@H](C)N)C(=O)O [Control Peptide, Ala-Asp-Ala-Gln-Gln-Asn-Lys-Phe-Asn-Lys-Asp-Gln-Gln-Ser-Val, reference compound]
CYTOTOXIC ACTIVITY (%) K562 (K562 target cells): 12 ± 8% | CYTOTOXIC ACTIVITY (%) DAUDI (Daudi target cells): 10 ± 4%

NVLGAPKKLNESQAV [Peptide 1]
CYTOTOXIC ACTIVITY (%) K562 (K562 target cells): 63 ± 8% | CYTOTOXIC ACTIVITY (%) DAUDI (Daudi target cells): 68 ± 6% | CELLS EXPRESSING SURFACE MARKERS (%) CD3 (lymphomononuclear cells): 60 ± 1% | CELLS EXPRESSING SURFACE MARKERS (%) CD8 (lymphomononuclear cells): 17 ± 1% | CELLS EXPRESSING SURFACE MARKERS (%) CD11b (lymphomononuclear cells): 23 ± 5% | CELLS EXPRESSING SURFACE MARKERS (%) CD14 (lymphomononuclear cells): 17 ± 4% | CELLS EXPRESSING SURFACE MARKERS (%) CD16 (lymphomononuclear cells): 22 ± 7% | CELLS EXPRESSING SURFACE MARKERS (%) CD56 (lymphomononuclear cells): 18 ± 6%

EILNMPNLNEEQRNV [Peptide 3]
CYTOTOXIC ACTIVITY (%) K562 (K562 target cells): 59 ± 9% | CYTOTOXIC ACTIVITY (%) DAUDI (Daudi target cells): 58 ± 9% | CELLS EXPRESSING SURFACE MARKERS (%) CD3 (lymphomononuclear cells): 59 ± 3% | CELLS EXPRESSING SURFACE MARKERS (%) CD8 (lymphomononuclear cells): 17 ± 2% | CELLS EXPRESSING SURFACE MARKERS (%) CD11b (lymphomononuclear cells): 23 ± 4% | CELLS EXPRESSING SURFACE MARKERS (%) CD14 (lymphomononuclear cells): 18 ± 3% | CELLS EXPRESSING SURFACE MARKERS (%) CD16 (lymphomononuclear cells): 21 ± 5% | CELLS EXPRESSING SURFACE MARKERS (%) CD56 (lymphomononuclear cells): 18 ± 5%
